Test results: patent publication US20230183248A1, “PYRROLO[1,2-D][1,2,4]TRIAZINE-2-YL-ACETAMIDES AS INHIBITORS OF THE NLRP3 INFLAMMASOME PATHWAY” (JANSSEN PHARMACEUTICA NV, priority 2020, published 2023)

Legend:
IL-1β = experiment: PBMC assay: LPS-stimulated IL-1β release; type: cell-based; settings: human PBMCs, 30 min compound pre-incubation, 100 ng/ml LPS for 6 hrs, supernatant, MSD
Method: (§1) Peripheral venous blood was collected from healthy individuals and human peripheral blood mononuclear cells (PBMCs) were isolated from blood by Ficoll-Histopaque (Sigma-Aldrich, A0561) density gradient centrifugation. After isolation, PBMCs were stored in liquid nitrogen for later use. Upon thawing, PBMC cell viability was determined in growth medium (RPMI media supplemented with 10% fetal bovine serum, 1% Pen-Strep and 1% L-glutamine). Compounds were spotted in a 1:3 serial dilution in DMSO and diluted to the final concentration in 30 µl medium in 96 well plates (Falcon, 353072). PBMCs were added at a density of 7.5 × 10^4 cells per well and incubated for 30 min in a 5% CO2 incubator at 37° C. LPS stimulation was performed by addition of 100 ng/ml LPS (final concentration, Invivogen, tlrl-smlps) for 6 hrs followed by collection of cellular supernatant and the analysis of IL-1β […] and TNF cytokines levels (µM) via MSD technology according to manufacturers’ guidelines (MSD, K151A0H).
(§2) The IC50 values (for IL-1β) and EC50 values (TNF) were obtained on compounds of the invention/examples, and are depicted in the following table: […]

TNF = experiment: PBMC assay: LPS-stimulated TNF cytokine levels; type: cell-based; settings: human PBMCs, 30 min compound pre-incubation, 100 ng/ml LPS for 6 hrs, supernatant, MSD
Method: as §1, §2

| SMILES | IC50 (IL-1β; Homo sapiens, PBMC) [µM] | melting point [°C] | EC50 (TNF; Homo sapiens, PBMC) [µM] | IC50 (IL-1β) [µM] | EC50 (TNF) [µM] |
| --- | --- | --- | --- | --- | --- |
| CCc1cc2c(=O)n(CC(=O)Nc3ccncc3F)nc(C(C)C)n2c1 [Compound 22F] | 0.67 | 142.64 | > 10 |  |  |
| CC(C)c1nn(CC(=O)Nc2ccncn2)c(=O)c2cc(C(F)F)cn12 [Compound 29F] | 1.67 | 216.46 | > 10 |  |  |
| CCCc1cc2c(=O)n(CC(=O)Nc3ccncn3)nc(C(C)C)n2c1 [Compound 59F] | 0.47 | 149.7 | > 10 |  |  |
| CC(C)c1nn(CC(=O)Nc2ccncc2F)c(=O)c2cc(C(F)(F)F)cn12 [Compound 32F, N-(3-fluoro-4-pyridyl)-2-[4-isopropyl-1-oxo-7-(trifluoromethyl)pyrrolo[1,2-d][1,2,4]triazin-2-yl]acetamide] | 1.5 |  | > 10 |  |  |
| CC(C)c1nn(CC(=O)Nc2ccncn2)c(=O)c2cc(C(=O)N(C)C)cn12 [Compound 77F] | > 10 |  | > 10 |  |  |
| CC(C)c1nn(CC(=O)Nc2ccncn2)c(=O)c2cc(-c3cc[nH]n3)cn12 [Compound 92F] | > 10 |  | > 10 |  |  |
| COC(C)c1cc2c(=O)n(CC(=O)Nc3ccncn3)nc(C(C)C)n2c1 (stereo not drawn) [Compound 88F] | 7.08 |  | > 10 | 9.06 |  |
| C=Cc1cc2c(=O)n(CC(=O)Nc3ccncn3)nc(C(C)C)n2c1 [Compound 17F] | 1.13 |  | > 10 |  |  |
| CC(C)c1nn(CC(=O)Nc2ccncn2)c(=O)c2cc(CC3CCNCC3)cn12 [Compound 82F, 2-(4-isopropyl-1-oxo-7-(piperidin-4-ylmethyl)pyrrolo[1,2-d][1,2,4]triazin-2(1H)-yl)-N-(pyrimidin-4-yl)acetamide] | > 10 |  | > 10 |  |  |
| CC(C)c1nn(CC(=O)Nc2ccncn2)c(=O)c2cc(-c3c[nH]cn3)cn12 [Compound 94F, 2-(7-(1H-imidazol-4-yl)-4-isopropyl-1-oxopyrrolo[1,2-d][1,2,4]triazin-2(1H)-yl)-N-(pyrimidin-4-yl)acetamide] | > 10 |  | > 10 |  |  |
| CC(C)c1nn(CC(=O)Nc2ccncn2)c(=O)c2cc(CCC(F)(F)F)cn12 [Compound 33F, 2-[4-isopropyl-1-oxo-7-(3,3,3-trifluoropropyl)pyrrolo[1,2-d][1,2,4]triazin-2-yl]-N-pyrimidin-4-yl-acetamide] | 3.62 |  | > 10 |  |  |
| CC(C)c1nn(CC(=O)Nc2ccncn2)c(=O)c2cccn12 [Compound 11F] | > 10 |  | > 10 |  |  |
| COCc1cc2c(=O)n(CC(=O)Nc3ccncn3)nc(C(C)C)n2c1 [Compound 3F] | 7.85 |  | > 10 |  |  |
| CC(C)Cc1cc2c(=O)n(CC(=O)Nc3ccncn3)nc(C(C)C)n2c1 [Compound 34F, 2-(7-isobutyl-4-isopropyl-1-oxo-pyrrolo[1,2-d][1,2,4]triazin-2-yl)-N-pyrimidin-4-yl-acetamide] | 3.84 |  | > 10 |  |  |
| CC(C)c1nn(CC(=O)Nc2ccncn2)c(=O)c2cc(C3CCC3)cn12 [Compound 30F, 2-(7-cyclobutyl-4-isopropyl-1-oxo-pyrrolo[1,2-d][1,2,4]triazin-2-yl)-N-pyrimidin-4-yl-acetamide] | 0.99 |  | > 10 |  |  |
| CC(C)c1nn(CC(=O)Nc2ccncn2)c(=O)c2cc(C3CNC3)cn12 [Compound 83F, 2-(7-(azetidin-3-yl)-4-isopropyl-1-oxopyrrolo[1,2-d][1,2,4]triazin-2(1H)-yl)-N-(pyrimidin-4-yl)acetamide] | > 10 |  | > 10 |  |  |
| CC(C)c1nn(CC(=O)Nc2ccncn2)c(=O)c2cc(-c3cnn(C)c3)cn12 [Compound 89F, 2-(4-isopropyl-7-(1-methyl-1H-pyrazol-4-yl)-1-oxopyrrolo[1,2-d][1,2,4]triazin-2(1H)-yl)-N-(pyrimidin-4-yl)acetamide] | > 10 |  | > 10 |  |  |
| CC(C)c1nn(CC(=O)Nc2ccncn2)c(=O)c2cc(CC3CCCOC3)cn12 (stereo not drawn) [Compound 80F, 2-(4-isopropyl-1-oxo-7-((tetrahydro-2H-pyran-3-yl)methyl)pyrrolo[1,2-d][1,2,4]triazin-2(1H)-yl)-N-(pyrimidin-4-yl)acetamide] | > 10 |  | > 10 |  |  |
| CC(C)c1cc2c(=O)n(CC(=O)N[C@H]3C[C@@](C)(O)C3)nc(C(C)OC3CC3)n2c1 (stereo partly drawn) [Compound 62F] | 2.23 |  | > 10 |  |  |
| CCc1cc2c(=O)n(CC(=O)N[C@H]3C[C@@](C)(O)C3)nc(N(C)C)n2c1 [Compound 58F] | 0.37 | 171.4 |  |  |  |
| CC(C)c1nn(CC(=O)Nc2ccncn2)c(=O)c2cc(CN(C)C)cn12 [Compound 43F, 2-(7-((dimethylamino)methyl)-4-isopropyl-1-oxopyrrolo[1,2-d][1,2,4]triazin-2(1H)-yl)-N-(pyrimidin-4-yl)acetamide] | > 10 |  | > 10 |  |  |

| SMILES | IC50 (IL-1β; Homo sapiens, PBMC) [µM] | melting point [°C] | EC50 (TNF; Homo sapiens, PBMC) [µM] | IC50 (IL-1β) [µM] | EC50 (TNF) [µM] |
| --- | --- | --- | --- | --- | --- |
| CCCc1cc2c(=O)n(CC(=O)Nc3ccncn3)nc(OC)n2c1 [Compound 54F] | 2.51 |  | > 10 |  |  |
| CC(C)c1nn(CC(=O)Nc2ccncn2)c(=O)c2cc(C#N)cn12 [Compound 42F] | > 10 |  | > 10 |  |  |
| CC(C)c1nn(CC(=O)Nc2ccncc2F)c(=O)c2cc(Br)cn12 [Compound 2F] |  |  |  | 1.26 | > 10 |
| CC(C)c1nn(CC(=O)Nc2ccncc2F)c(=O)c2cc(Br)cn12 [Compound 10F] | 0.89 |  | > 10 |  |  |
| CNC(=O)c1cc2c(=O)n(CC(=O)Nc3ccncn3)nc(C(C)C)n2c1 [Compound 76F, 4-isopropyl-N-methyl-1-oxo-2-(2-oxo-2-(pyrimidin-4-ylamino)ethyl)-1,2-dihydropyrrolo[1,2-d][1,2,4]triazine-7-carboxamide] | > 10 |  | > 10 |  |  |
| CC(C)c1nn(CC(=O)Nc2ccncc2F)c(=O)c2cc(I)cn12 [Compound 4F, N-(3-fluoro-4-pyridyl)-2-(7-iodo-4-isopropyl-1-oxo-pyrrolo[1,2-d][1,2,4]triazin-2-yl)acetamide] | 0.25 |  | > 10 |  |  |
| CC(C)c1cc2c(=O)n(CC(=O)Nc3ccncn3)nc(N3CCOCC3)n2c1 [Compound 25F] | > 10 |  | > 10 |  |  |
| CC(C)c1nn(CC(=O)N[C@H]2C[C@@](C)(O)C2)c(=O)c2cc(I)cn12 [Compound 72F] | 0.24 |  | > 10 |  |  |
| CC(C)c1cc2c(=O)n(CC(=O)Nc3ccncn3)nc(C(C)C)n2c1 [Compound 19F] | 0.35 |  | > 10 |  |  |
| CC(C)c1nn(CC(=O)Nc2ccncn2)c(=O)c2cc(Br)cn12 [Compound 1F, 2-(7-bromo-4-isopropyl-1-oxo-pyrrolo[1,2-d][1,2,4]triazin-2-yl)-N-pyrimidin-4-yl-acetamide] | 0.71 |  | > 10 |  |  |
| CC(C)c1cc2c(=O)n(CC(=O)Nc3ccncn3)nc(C3CNC3)n2c1 [Compound 45F] | > 10 |  | > 10 |  |  |
| CC(C)c1nn(CC(=O)Nc2ccncn2)c(=O)c2cc(CO)cn12 [Compound 12F] | 9.86 |  | > 10 |  |  |
| CC(C)c1nn(CC(=O)Nc2ccncn2)c(=O)c2cc(C(C)(C)F)cn12 [Compound 87F, 2-(7-(2-fluoropropan-2-yl)-4-isopropyl-1-oxopyrrolo[1,2-d][1,2,4]triazin-2(1H)-yl)-N-(pyrimidin-4-yl)acetamide] | 8.26 |  | > 10 |  |  |
| CC(C)c1nn(CC(=O)Nc2ccncc2F)c(=O)c2cc(F)cn12 [Compound 52F] | > 10 |  | > 10 |  |  |
| CC(C)c1nn(CC(=O)Nc2ccc3nncn3c2)c(=O)c2cc(I)cn12 [Compound 71F] | 0.14 |  | 19.8 | 0.26 | > 10 |
| CC(C)c1nn(CC(=O)Nc2ccncn2)c(=O)c2cc(CCCF)cn12 [Compound 78F, 2-(7-(3-fluoropropyl)-4-isopropyl-1-oxopyrrolo[1,2-d][1,2,4]triazin-2(1H)-yl)-N-(pyrimidin-4-yl)acetamide] | 2.33 |  | > 10 |  |  |
| COC(C)c1nn(CC(=O)Nc2ccncn2)c(=O)c2cc(C(C)C)cn12 (stereo not drawn) [Compound 31F, 2-[7-isopropyl-4-(1-methoxyethyl)-1-oxo-pyrrolo[1,2-d][1,2,4]triazin-2-yl]-N-pyrimidin-4-yl-acetamide] | 5.14 |  | > 10 |  |  |
| CC(C)c1nn(CC(=O)Nc2ccncn2)c(=O)c2cc(-c3cn(C)cn3)cn12 [Compound 93F, 2-(4-isopropyl-7-(1-methyl-1H-imidazol-4-yl)-1-oxopyrrolo[1,2-d][1,2,4]triazin-2(1H)-yl)-N-(pyrimidin-4-yl)acetamide] | > 10 |  | > 10 |  |  |
| CC(C)c1nn(CC(=O)Nc2ccncn2)c(=O)c2cc(C3CCNCC3)cn12 [Compound 84F, 2-(4-isopropyl-1-oxo-7-(piperidin-4-yl)pyrrolo[1,2-d][1,2,4]triazin-2(1H)-yl)-N-(pyrimidin-4-yl)acetamide] | > 10 |  | > 10 |  |  |
| CNCc1cc2c(=O)n(CC(=O)Nc3ccncn3)nc(C(C)C)n2c1 [Compound 44F] | > 10 |  | > 10 |  |  |
| CC(C)c1nn(CC(=O)Nc2ccncn2)c(=O)c2cc(-c3ccn(C)n3)cn12 [Compound 90F] | > 10 |  | > 10 |  |  |
